The values below come from patent US20100166727A1, “S-Adenosylmethionine And Methylthioadensosine In Chemoprevention And Treatment Of Colon Polyps And Cancer” (UNIVERSITY OF SOUTHERN CALIFORNIA, priority 2007, published 2010).

For one experiment, the system named is MAT2A. The experiment is described as follows: Intestinal MAT2A expression in mice given SAMe or MTA in drinking water. Format: in vivo. As to the method: FIG. 30. Effects of oral SAMe and MTA on colonic mRNA levels of MAT2A, MAT2 β, and cFLIPL. Mice were fed SAMe (150 to 450 mg/kg/d) or MTA (75 or 150 mg/kg/d) in drinking water for 6 days. Colonic mucosa was scrapped off and gene expression measured by real-time PCR.
Three-month old male C57/B6 mice were fed ad libitum a standard diet (Harland Tekiad irradiated mouse diet 7912, Madison, Wis.), caged individually and had free access to water supplemented with SAMe ([…]), MTA (75 mg/kg/d), phosphate buffered saline (vehicle for SAMe) or DMSO (0.2%, vehicle for MTA) for 6 days. SAMe and MTA were made fresh daily. The amount of water intake, body weight, and animal behavior were closely monitored. After 6 days, animals were sacrificed, intestine was cut open along the longitudinal axis, and mucosa was stripped from the intestine (46). Mucosa was weighed and a portion processed for SAMe measurement as described below, the rest snap frozen for subsequent RNA extraction.
Total RNA was isolated by the EZgeno total RNA isolation kit (Genemega, San Giego, Calif.), and subjected to reverse transcription (RT) by using M-MLV Reverse transcriptase (Invitrogen). 2 μl of RT product was subjected to quantitative real-time PCR analysis. The primers and TaqMan probes for MAT2A, MAT2β and Universal PCR Master Mix were purchased from ABI (Foster City, Calif.). Hypoxanthine phosphoribosyl-transferase 1 (HPRT1) and ubiquitin C (UBC) were used as housekeeping genes (48). The thermal profile consisted of 1 cycle at 95° C. for 15 minutes followed by 40 cycles at 95° C. for 15 seconds and at 60° C. for 1 minute. The expression of MAT2A and MAT2β was checked by normalizing the Ct of MAT2A and MAT2β to that of the control housekeeping gene (HPRT1 or UBC) (49). The delta Ct obtained was used to find the relative expression of MAT genes according to the formula: Relative expression=2·^ΔCt, where ΔCt=ΔCt of MAT genes in colon cancer or treated cells—ΔCt of MAT genes in normal colon or control cells.

The subject of experiment [1] is spermine synthase (SPM syn). As to the kind of experiment: SPM syn expression by real-time PCR in HT-29 cells. Format: cell-based, human. The note with it: 6 hrs. A general note: Quantitative PCR measures a nucleic acid by following its amplification.
The next experiment deals with Bcl-xS. As to the kind of experiment: Bcl-xS mRNA level in HT-29 cells. Type of experiment: cell-based, human. Particulars: 6 hrs. As to the method: SAMe and MTA induce apoptosis in liver cancer cells by the mitochondrial pathway (14). […] In liver cancer cells, SAMe and MTA induced selectively expression of Bcl-xs, a pro-apoptotic protein (67). We examined whether the same occurs in HT-29 cells. After 6 hrs of MTA (1 mM) treatment, Bcl-xL mRNA level fell by 53% (47±4% of control, results are mean±SE from 4 experiments, p<0.0005). […] This makes these agents particularly attractive in targeting colon cancer cells.

The test system of the next experiment is c-FLIP. The experiment is described as follows: c-FLIP expression and caspase 8 activation in RKO cells. Format: cell-based, human. The note with it: 6 hrs, with concomitant caspase 8 activation. As to the method: FIG. 27. […] RKO cells were treated with SAMe (0.25-5 mM) or MTA (0.25-2 mM) for 6 hrs and c-FLIP isoform mRNA levels were measured using real-time PCR (A) and protein levels of c-FLIP and caspase 8 by Western blots (B).

The test system of a further experiment is human MAT2A promoter. The experiment is described as follows: Luciferase activity driven by the human MAT2A promoter in HT-29 cells. Type of experiment: cell-based. Particulars: SAMe 5 mM or MTA 1 mM, 6 hrs. As to the method:
The human MAT2A promoter construct[…] and GSS promoter construct −1686/−46-LUC were previously described (33, 34, 50), and subcloned in the sense orientation upstream of the luciferase coding sequence of the pGL-3 enhancer vector (Promega). Both promoter constructs contain maximal promoter activity.
To study the effect of mitogens on human MAT2A promoter activity in HT-29 cells, HT-29 cells (5×10^5 cells in 2 ml serum-free medium) were transiently transfected with 2 μg MAT2A promoter firefly luciferase gene construct or promoterless pGL3-enhancer vector (as negative control) using the Superfect Transfection Reagent (Qiagen, Valencia, Calif.) (34). To control for transfection efficiency, cells were co-transfected with the Renilla phRL-TK vector (Promega, Madison, Wis.). […] The luciferase activity driven by the MAT2A promoter construct was normalized to Renilla luciferase activity. Each experiment was done with triplicate samples.

Experiment [2] relates to ornithine decarboxylase (ODC). As to the kind of experiment: ODC expression by real-time PCR in HT-29 cells. Type of experiment: cell-based, human. Particulars: 6 hrs.
Setting [3] is: 75 mg/kg/d in drinking water, six days.
Where [4] appears, read: 150 mg/kg/d in drinking water, six days.

As for `C[S+](CC[C@H](N)C(=O)O)C[C@H]1O[C@@H](n2cnc3c(N)ncnc32)[C@H](O)[C@@H]1O` (stereo partly shown) [SAMe, S-adenosylmethionine], the figures for the “MAT2A expression, colon” value with MAT2A (setting [3]) and in the experiment on MAT2A (setting [4]) were 128 ± 20 % of control MAT2A mRNA levels and 85 ± 10 % of control MAT2A mRNA levels, respectively. Also, the figures for the “MAT2A expression, proximal small intestine” value with MAT2A (setting [3]) and in the experiment with MAT2A (setting [4]) were 99 ± 2 % of control MAT2A mRNA levels and 81 ± 4 % of control MAT2A mRNA levels, respectively. In addition, the “decrease of MAT2A expression in proximal small intestine” value with MAT2A (SAMe 150 mg/kg/d, MTA 75 mg/kg/d, six days) stood at 20%. The “inhibition in colonic MAT2A mRNA level” value in the experiment with MAT2A (SAMe 450 mg/kg/d (highest dose), 6 days) was determined as 75%. Further, the SPM syn expression in experiment [1] (SAMe 2 mM) is 1.1 ± 0.02 fold of control; in experiment [1] (SAMe 5 mM), 1.0 ± 0.01 fold of control. Besides, in the experiment with Bcl-xS, the “Bcl-xS mRNA level” value is listed as “no effect on Bcl-xS mRNA level”. Further, in the experiment with c-FLIP, the c-FLIP expression entry is “lowered c-FLIP expression”. Further, in the experiment on human MAT2A promoter, the “human MAT2A promoter activity” value is listed as “lower the promoter activity”. For the same compound, the ODC expression is recorded as 1.1 ± 0.07 fold of control in experiment [2] (SAMe 2 mM) and 0.8 ± 0.04 fold of control in experiment [2] (SAMe 5 mM).
